Data taken from patent US11377442B2, “Small molecule agonists and antagonists of NR2F6 activity” (ZANDER THERAPEUTICS, INC., priority 2016, dated 2022).
Values after ≈ are worked out from the molar mass of the structure shown. Like-named read-outs stand apart in the source and are kept apart here.

Legend:
[1] = Microsomal stability in rat liver microsomes; type: in vitro ADME
[2] = PK in rat plasma; type: in vivo; conditions: for Fabs, %: PO 7.53 mg/kg vs IV 1.13 mg/kg
[3] = target: T1, P-gp (MDR1) (Homo sapiens, UniProt P08183); experiment: Caco-2 asymmetry, P-gp substrate; type: in vitro ADME
T1 construct: endogenous in cells; host or cells: Caco-2
T1 sequence (P08183 whole entry): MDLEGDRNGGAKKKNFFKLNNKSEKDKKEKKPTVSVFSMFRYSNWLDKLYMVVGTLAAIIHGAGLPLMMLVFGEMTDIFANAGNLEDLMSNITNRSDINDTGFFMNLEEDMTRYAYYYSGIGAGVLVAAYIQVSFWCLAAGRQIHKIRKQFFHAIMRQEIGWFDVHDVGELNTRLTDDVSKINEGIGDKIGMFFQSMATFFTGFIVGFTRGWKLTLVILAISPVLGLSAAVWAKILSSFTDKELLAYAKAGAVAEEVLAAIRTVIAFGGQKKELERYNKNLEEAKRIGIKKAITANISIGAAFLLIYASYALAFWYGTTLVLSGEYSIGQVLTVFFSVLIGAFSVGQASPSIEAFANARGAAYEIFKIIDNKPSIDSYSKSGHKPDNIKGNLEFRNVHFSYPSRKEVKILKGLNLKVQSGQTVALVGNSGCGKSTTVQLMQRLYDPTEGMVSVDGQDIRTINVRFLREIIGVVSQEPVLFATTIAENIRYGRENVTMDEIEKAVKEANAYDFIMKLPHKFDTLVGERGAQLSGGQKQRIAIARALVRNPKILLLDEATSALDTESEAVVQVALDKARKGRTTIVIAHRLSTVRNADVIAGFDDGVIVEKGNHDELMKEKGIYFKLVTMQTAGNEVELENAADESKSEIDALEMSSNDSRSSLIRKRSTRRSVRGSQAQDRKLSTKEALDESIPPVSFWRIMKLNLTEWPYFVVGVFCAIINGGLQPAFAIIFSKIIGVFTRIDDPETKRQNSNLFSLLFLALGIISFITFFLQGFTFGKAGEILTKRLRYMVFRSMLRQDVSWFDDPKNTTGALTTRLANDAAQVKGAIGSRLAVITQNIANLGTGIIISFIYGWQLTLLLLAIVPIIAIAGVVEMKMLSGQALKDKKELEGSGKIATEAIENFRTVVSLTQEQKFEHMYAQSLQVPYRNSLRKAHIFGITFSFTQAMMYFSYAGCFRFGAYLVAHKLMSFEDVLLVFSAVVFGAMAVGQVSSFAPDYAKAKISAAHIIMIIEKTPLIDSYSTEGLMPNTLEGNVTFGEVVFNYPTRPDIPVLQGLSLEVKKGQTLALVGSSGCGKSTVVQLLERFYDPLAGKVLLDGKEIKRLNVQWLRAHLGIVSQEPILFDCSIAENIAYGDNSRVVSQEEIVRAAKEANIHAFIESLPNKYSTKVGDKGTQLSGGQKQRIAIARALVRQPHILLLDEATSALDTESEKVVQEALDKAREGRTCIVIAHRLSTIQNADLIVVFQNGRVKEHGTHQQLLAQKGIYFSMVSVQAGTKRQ
Method: A Caco-2 permeability assay was performed on Compound D136.

[4] = pH solubility; type: physicochemical; conditions: for solubility: aqueous buffer, OD 250 nm
[5] = PK in mice plasma; type: in vivo; conditions: for Fabs, %: PO 3.18 mg/kg vs IV 1.12 mg/kg; for Vd: plasma, iv
[6] = Table 36, PO plasma, 7.53 mg/kg
[7] = Table 38, IV plasma, 1.13 mg/kg
[8] = rat, Table 36, PO plasma, 7.53 mg/kg
[9] = rat, Table 38, IV plasma, 1.13 mg/kg
[10] = Table 39, PO plasma, 3.18 mg/kg
[11] = Table 41, IV plasma, 1.12 mg/kg
[12] = mouse, Table 39, PO plasma, 3.18 mg/kg
[13] = mouse, Table 41, IV plasma, 1.12 mg/kg

COCCN[C@H]1CS(=O)(=O)C[C@@H]1S(=O)(=O)c1ccc(Cl)cc1 [Compound D136]
stability in presence of rat liver microsomes [1]: Extremely stable | K el [2, 6]: 0.75 h⁻¹ | T_½ [2, 6]: 55.8 min | AUV last ([2]; Table 37, IV plasma, 1.13 mg/kg): 239 | AUV last ([2]; Table 37, PO plasma, 7.53 mg/kg): 197 | Fabs, % ([2]; Table 37, from AUCinf): 12.9% | Fabs, % ([2]; Table 37, from AUV last): 12.3% | Cl/F [2, 7]: 80.23 mL/min/kg | K el [2, 7]: 2.11 h⁻¹ | T_½ [2, 7]: 19.8 min | bioavailability ([2]; plasma, po, PK in mouse and dog, species of the value not stated, read-out: orally bioavailable (absorbance)): ~33% | AUC(0-inf) [2, 8]: 208 ng·h/mL | AUC(0-t) [2, 8]: 197 ng·h/mL | CL/F [2, 8]: 866 mL/min/kg | Cmax [2, 8]: 165 ng/mL | MRT inf [2, 8]: 79.8 min | MRT last [2, 8]: 67.8 min | Tmax [2, 8]: 30 min | Vd/F ([2]; rat, Table 36, PO plasma, 7.53 mg/kg, read-out: Vz/F): 66.3 L/kg | AUC(0-inf) ([2]; rat, Table 37, IV plasma, 1.13 mg/kg): 242 ng·h/mL | AUC(0-t) [2, 9]: 239 ng·h/mL | Cmax [2, 9]: 524 ng/mL | MRT inf [2, 9]: 22.2 min | MRT last [2, 9]: 21 min | Tmax [2, 9]: 4.98 min | substrate for P-gp (MDR1) ([3]; Caco-2 asymmetry): not a substrate | efflux ratio ([3]; human, Caco-2, Mean Papp B-A / A-B, read-out: Asymmetry Index): 1.5 | solubility ([4]; pH 2): 660 µg/mL (≈ 1790 µM) | solubility ([4]; pH 4): 220 µg/mL (≈ 598 µM) | solubility ([4]; pH 7): 190 µg/mL (≈ 516 µM) | solubility at pH2 ([4]; pH2): soluble | solubility at pH4 ([4]; pH4): soluble | solubility at pH7.4 ([4]; pH7.4): soluble | K el [5, 10]: 1.2 h⁻¹ | T_½ [5, 10]: 34.8 min | AUV last ([5]; Table 40, IV plasma, 1.12 mg/kg): 124 | AUV last ([5]; Table 40, PO plasma, 3.18 mg/kg): 116 | Fabs, % ([5]; Table 40, from AUCinf): 33.2% | Fabs, % ([5]; Table 40, from AUV last): 33.0% | K el [5, 11]: 1.16 h⁻¹ | T_½ [5, 11]: 36 min | Vd ([5]; mouse, 1.12 mg/kg, Table 41, IV plasma, 1.12 mg/kg, read-out: Vss): 2.41 L/kg | Vd ([5]; mouse, 1.12 mg/kg, Table 41, IV plasma, 1.12 mg/kg, read-out: Vz): 7.74 L/kg | AUC(0-inf) [5, 12]: 117 ng·h/mL | AUC(0-t) [5, 12]: 116 ng·h/mL | CL/F [5, 12]: 452 mL/min/kg | Cmax [5, 12]: 89.6 ng/mL | MRT inf [5, 12]: 64.8 min | MRT last [5, 12]: 62.4 min | Tmax [5, 12]: 15 min | Vd/F ([5]; mouse, Table 39, PO plasma, 3.18 mg/kg, read-out: Vz/F): 22.5 L/kg | AUC(0-inf) ([5]; mouse, Table 40, IV plasma, 1.12 mg/kg): 124 ng·h/mL | AUC(0-t) [5, 13]: 124 ng·h/mL | C0 [5, 13]: 770 ng/mL | Cmax [5, 13]: 390 ng/mL | MRT inf [5, 13]: 16.2 min | MRT last [5, 13]: 15 min | Tmax [5, 13]: 4.98 min | clearance [5, 13]: 150 mL/min/kg
